In US20260151398A1, “COMPOUNDS FOR REDUCING CHOLESTEROL AND TREATING LIVER AND KIDNEY DISEASE” (McMaster University, priority 2021, published 2026):
Entries after “also recorded” stand apart in the source; their conditions may differ.

What was measured:
PCSK9 = PCSK9 secretion from cultured and primary hepatocytes (ELISA of medium); format: cell-based, human, mouse; conditions: for PCSK9 secretion with Ca2+-modulating agents: ELISA of medium
Method: HuH7 and HepG2 cells were routinely grown in complete Dulbecco's Modified Eagle's Medium (Gibco, Thermofisher Scientific) supplemented with 10% fetal bovine serum (Sigma-Aldrich) and 100 U/ml of penicillin and streptomycin (Sigma-Aldrich). […] All cell treatments were carried out for 24 h unless otherwise stated. Cells were transfected with a cocktail consisting of plasmid DNA (1 μg), X-tremeGENE HP (3 μl; Thermofisher Scientific) and opti-MEM (100 μl; Thermofischer Scientific) per 1 ml complete medium containing plated cells. Human PCSK9 was overexpressed using the bicistronic pIRES-EGFP plasmid; calnexin using the mPA-GFP-N1 plasmid. To block the expression of GRP78 and CD36, siGENOME smartpool siRNA was purchased from GE Dharmacon (M-008198-02 and L-010206-00-0005 respectively) and transfected using lipofectamine RNAiMAX as per manufacturer's protocol.
Secreted PCSK9 levels were assessed directly in cell culture medium of cells grown in FBS-free medium for 24 h or in the serum isolated from either mice or human subjects. Mouse PCSK9 was measured using the Quantikinine® ELISA kit (#MCP900, R&D Systems) and human PCSK9 using the PCSK9 Quantikinine® ELISA kit (#DCP900, R&D Systems). Serum ApoB levels were also quantified using ELISAs (#DAPB00, R&D Systems). Serum samples were diluted as per manufacturer's instructions.
All animal studies were carried out in 8 h-fasted male wild-type, Pcsk9^−/− or Ampkβ1^−/− mice on the C57BL/6J background. CF (25-100 mg/kg-8 h) and CDN (50 mg/kg) treatments were administered via intraperitoneal injection unless specified otherwise. Primary mouse hepatocytes were isolated using a two-step process with EGTA ([…] in HEPES buffer, Sigma Aldrich) and collagenase (0.05% in HEPES buffer, Sigma Aldrich) in 12-week-old male mice on the C57BL/6J background. Cells were then washed, centrifuged, and plated following isolation in cell strainers. Hepatosure® 100-donor pooled primary human hepatocytes were purchased from Xenotech. Primary hepatocytes were regularly grown in William's E medium (Gibco, Thermo Fisher Scientific) containing 10% fetal bovine serum, 100 IU/ml penicillin, and 100 µg/ml streptomycin.

SREBP2 = SREBP2 expression and activation in hepatocytes (real-time PCR, SRE-GFP reporter, immunoblot, immunofluorescence); format: cell-based, human, mouse; conditions: for activation and nuclear localization of SREBP2: immunoblots of whole-cell lysates
Method: (§1) Cells were washed in phosphate-buffered saline (PBS), lysed in 4× SDS-PAGE lysis buffer and separated on 7-10% polyacrylamide gels in denaturing conditions. Gels were transferred to nitrocellulose membranes using the BioRad mini trans-blot system, blocked in 5% skim milk in tris-buffered saline (TBS) for 1 h and incubated in primary antibody overnight for 16 h at 4° C. Membranes were then exposed to horse radish peroxidase conjugated secondary antibodies and visualized using EZ-ECL chemiluminescent reagent (Froggabio). Band intensities were quantified using ImageJ software ([…]) against membranes reprobed for housekeeping proteins.
Cells were plated in 4-well chamber slides and incubated in complete DMEM for 24 h and exposed to treatments 24 h later for an additional 24 h. Cells were fixed with 4% paraformaldehyde for 30 minutes and washed with either non-permeabilizing, or permeabilizing PBS containing 0.025% Triton-X. Cells were then blocked with 1% bovine serum albumin (BSA) for 30 minutes and stained with anti-GFP antibody for 1 h in PBS containing 1% BSA. Afterwards, cells were washed and incubated with Alexa 488 fluorescently-labelled secondary antibodies (Thermofisher Scientific), as well as the DAPI nuclear stain. Slides were then mounted with permafluor and visualized using the EVOS FL colour imaging system at either 20 or 40× magnification.
(§2) RNA purification/isolation was performed using RNeasy mini kits (Qiagen) and normalized to 2 μg RNA using a NanoDrop® spectrophotometer. Samples were then reverse transcribed into cDNA using Superscript Vilo cDNA Synthesis kit (Thermofisher Scientific). Real-time PCR was executed with Fast SYBR Green (Thermo Fisher Scientific) using the ΔΔct method on the ViiA7 real-time PCR platform (Thermofisher Scientific).
Therefore, the effect of CF on TG-; induced SREBP2 activation was examined. […] SREBP2 activity was then examined at the protein level in HuH7 cells transfected with a plasmid encoding GFP driven by the sterol regulatory element (SRE-GFP; FIG. 2E to G). […] GFP expression was also visualized via immunofluorescent staining and quantified using ImageJ Software.

[1] = test system: ER stress markers (GRP78, ATF4, pPERK, IRE1α, sXBP1, ATF6); experiment: ER stress / UPR readouts in hepatocytes; format: cell-based, human
Method: as §1
Following treatment, live cells were incubated in complete DMEM containing 5 μM Thioflavin-T (ThT; Thermofisher Scientific) for 15 minutes. Cells were then fixed in 4% paraformaldehyde and mounted with permafluor. Fluorescent staining was visualized using the EVOS FL colour system at either 20 or 40× magnification.
as §2
Because ER Ca^2+ depletion induces a compensatory unfolded protein response (UPR), it was also postulated that CF may attenuate UPR marker expression by increasing ER Ca^2+ levels. […] Reactive oxygen species production, a process known to occur during conditions of ER stress, was also attenuated by CF (FIG. 9 H). […] While increasing the protein binding ability of chaperones, such as GRP78, CF also attenuates SREBP2-driven gene expression (FIG. 7 L).

GRP78 and SREBP2 = experiment: Co-immunoprecipitation of GRP78 with SREBP2 in HuH7 cells; format: cell-based, human; conditions: TG 100 nM, CDN 100 μM, CF 200 μM, 24 h
Method: Cells were grown in 10 cm dishes were resuspended in ice cold non-denaturing immunoprecipitation buffer containing 20 mM tris HCL, 137 mM NaCl, 1% NP-40, 2 mM EDTA and protease inhibitor (Roche). Total cell protein was normalized using a protein assay (BioRad) and 1 mg of protein from each sample was incubated with 2 μg of capture antibody targeted against GRP78 (Santa Cruz Biotechnology; SC-1050) and rotated on a platform for 24 h at 4° C. Following incubation, samples were exposed to 100 μl of Protein G magnetic Surebeads® (BioRad) for an additional 2 h on a rotating platform at 4° C. Beads conjugated to the anti-GRP78 antibody were subsequently isolated and the remaining sample was collected and labelled “input” for use as controls. The magnetic beads underwent 4 consecutive washes using the non-denaturing IP buffer and resuspended and boiled in 100 μl of 4× SDS-PAGE sample buffer.
To determine whether increasing ER Ca^2+ levels enhance GRP78 peptide binding capacity, HuH7 cells were treated with either CDN, which increases ER Ca^2+ levels, or TG which causes ER Ca^2+ depletion. Following treatment, the interaction taking place between GRP78 and SREBP2 was examined via immunoprecipitation of the former. By affecting ER Ca^2+ levels however, these agents also directly impact the expression and abundance of GRP78 compared to untreated cells. Therefore, assessment of the relative binding capacity GRP78 for SREBP2 between treatments required normalization of immunoprecipitations to equivalent GRP78 protein levels (FIG. 7 A).

| SMILES | PCSK9 secretion (PCSK9; HuH7, HepG2, PMH, PHH, listed as CF) | re-localization of SREBP2 to the nucleus (SREBP2; HuH7, TG-treated, immunofluorescence) | nuclear SREBP2 (nSREBP2) and SRE-driven GFP expression (SREBP2; HuH7 transfected with SRE-GFP, presence and absence of TG, listed as CF) | SREBP2 expression (SREBP2; PMH, PHH, HepG2, real-time PCR) | activation and nuclear localization of SREBP2 (SREBP2) | thioflavin-T-stained misfolded protein aggregates and FLAG-sXBP1 expression ([1]; HuH7) | reactive oxygen species production ([1]; HuH7, TG 100 nM) | expression of pPERK, IRE1α, sXBP1, ATF4 and ATF6 ([1]; HuH7, immunoblotting and real-time PCR, listed as CF) | mRNA of ER stress markers GRP78 and ATF4 ([1]; PHH, CF 200 μM) | interaction of GRP78 with pre-mature SREBP2 (GRP78 and SREBP2) | PCSK9 secretion with Ca2+-modulating agents (PCSK9) | TG-induced GRP78 expression ([1]; HuH7, with TG 100 nM) | GRP78 expression ([1]; HuH7, TG 100 nM, CPA 10 μM) |
| --- | --- | --- | --- | --- | --- | --- | --- | --- | --- | --- | --- | --- | --- |
| Cn1c(=O)c2c(ncn2C)n(C)c1=O [caffeine, 1,3,7-Trimethylxanthine] | blocked the secretion of PCSK9; also recorded: blocks PCSK9 expression and secretion | attenuated the re-localization of SREBP2 | blocked the nuclear/activated isoform of SREBP2; also recorded: blocks SREBP2 activation | blocked the expression of SREBP2 | antagonized the activation and nuclear localization of SREBP2 | blocked the accumulation of thioflavin-T-stained misfolded protein aggregates | attenuated | reduction in the expression of pPERK, IRE1α, sXBP1, ATF4 and ATF6; also recorded: protects against ER stress | reduction in mRNA transcript levels of ER stress markers | increases the SREBP2-binding capacity of GRP78 | – | – | – |
| Cc1ccc2cccc(NC(=O)c3ccc(OC(C)C)cc3)c2n1 [CDN] | – | – | – | – | antagonized the activation and nuclear localization of SREBP2 | – | – | – | – | enhanced the ability of GRP78 to interact with and sequester pre-mature SREBP2 | blocked PCSK9 secretion | blocked TG-induced expression | – |
| C/C=C(/C)C(=O)O[C@H]1C(C)=C2[C@H]([C@@H]1OC(=O)CCCCCCC)[C@@](C)(OC(C)=O)C[C@H](OC(=O)CCC)[C@@]1(O)[C@H]2OC(=O)[C@@]1(C)O [TG, thapsigargin] | – | – | – | – | opposite effect | – | – | – | – | lost its intrinsic ability to interact with pre-mature SREBP2 | blocked PCSK9 secretion | – | increased the expression of GRP78 |
